Test results reported in ChEMBL document CHEMBL1132366, “Conceptually new sulfone analogues of the hormone 1alpha, 25-dihydroxyvitamin D(3): synthesis and preliminary biological evaluation” (J Med Chem, 1999).

What follows are compounds tested against T1, Vitamin D3 receptor (Rattus norvegicus) (UniProt P13053) (assay: Binding affinity for vitamin D3 receptor compared to 1,25D3 (100%)).
T1 sequence (whole entry): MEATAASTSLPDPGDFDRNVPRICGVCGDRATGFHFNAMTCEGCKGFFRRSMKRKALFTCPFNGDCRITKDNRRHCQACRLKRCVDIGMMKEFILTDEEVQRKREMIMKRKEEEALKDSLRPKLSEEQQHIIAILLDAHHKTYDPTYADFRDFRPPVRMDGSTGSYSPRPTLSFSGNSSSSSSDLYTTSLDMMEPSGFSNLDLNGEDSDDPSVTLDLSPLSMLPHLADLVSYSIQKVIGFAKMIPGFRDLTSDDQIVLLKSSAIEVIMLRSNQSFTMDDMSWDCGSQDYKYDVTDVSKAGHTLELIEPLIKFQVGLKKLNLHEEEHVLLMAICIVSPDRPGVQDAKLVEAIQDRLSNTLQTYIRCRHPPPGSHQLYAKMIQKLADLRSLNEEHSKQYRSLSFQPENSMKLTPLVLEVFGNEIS

Row | Affinity | Structure (SMILES)
1 | 21% | C=C1/C(=C/C=C2/CCC[C@]3(C)C([C@H](C)CCS(=O)(=O)C(C)(C)C)=CC[C@@H]23)C[C@@H](O)C[C@@H]1O
2 | 7.9% | C=C1/C(=C/C=C2/CCC[C@]3(C)C([C@H](C)CCC(F)(F)S(=O)(=O)C(C)(C)C)=CC[C@@H]23)C[C@@H](O)C[C@@H]1O
3 | 4% | C=C1/C(=C/C=C2/CCC[C@]3(C)C([C@H](C)C/C=C(/F)S(=O)(=O)C(C)(C)C)=CC[C@@H]23)CC(O)CC1O (some centres not stated)

Each compound was assayed against T1, Vitamin D3 receptor (Rattus norvegicus) (assay: Vitamin D3 receptor-mediated transcriptional potency in rat osteosarcoma ROS 17/2.8 cells).

Row | ED50 | Structure (SMILES)
4 | 0.35 nM | C=C1C(=CC=C2CCC[C@]3(C)[C@@H]([C@H](C)CCCC(C)(C)O)CC[C@@H]23)C[C@@H](O)C[C@@H]1O
5 | 0.8 nM | C=C1/C(=C/C=C2/CCC[C@]3(C)C([C@H](C)CCS(=O)(=O)C(C)(C)C)=CC[C@@H]23)C[C@@H](O)C[C@@H]1O
6 | 0.65 nM | C=C1/C(=C/C=C2/CCC[C@]3(C)C([C@H](C)CCC(F)(F)S(=O)(=O)C(C)(C)C)=CC[C@@H]23)C[C@@H](O)C[C@@H]1O
7 | 4 nM | C=C1/C(=C/C=C2/CCC[C@]3(C)C([C@H](C)C/C=C(/F)S(=O)(=O)C(C)(C)C)=CC[C@@H]23)CC(O)CC1O (some centres not stated)
